Results on 75 compounds are retold here after patent publication US20120010177A1, “MicroRNA Modulators and Method for Identifying And Using The Same” (The Wistar Institute / North Carolina State University, priority 2008, published 2012).

One test concerns miR-21. Nature of the test: High throughput primary miR-21 FLuc reporter assay (concentration-response). The format is cell-based, human. To be noted: HeLa Luc-miR-21 reporter, 48-hour incubation; read-out: AC50. How it is done:
Primary miR-21 Assay. The primary miR-21 FLuc reporter assay is carried out with HeLa cells expressing the Luc-miR-21 reporter using a 48-hour incubation time. Active compounds that increase the luciferase response are identified based upon inhibition of miR-21.
SAR. The concentration-response data for the entire high throughput screen is plotted and modeled by a four parameter logistic fit and SAR analysis is performed according to conventional approaches (Iglese, et al. (2006) Proc. Natl. Acad. Sci. USA […]:11473-8). In brief, Class 1.1 and 1.2 are full curves containing upper and lower asymptotes with efficacy ≧80% and <80%, respectively. Class 2.1 and 2.2 are incomplete curves having only one asymptote with efficacy ≧80% and <80%, respectively. Class 3 curves show activity at only the highest concentration or are poorly fit. […] For SAR analysis, compounds associated with Class 1 and 2.1 curves are clustered using LEADSCOPE® fingerprints. […] Compounds sharing a common scaffold form a series. Candidate series and singletons are chosen for follow up studies. For each lead or series, an appropriate library design method (e.g., point substitution library or matrix library) is selected. Typically, precursors are synthesized and a library of 15-25 compounds is produced for analysis in the above-described assays.
Background: A reporter such as luciferase makes a cellular process visible.
For orientation: AC50 means the midpoint of the concentration-response curve, whichever way the signal moves. For `Cc1ccc(C)c(-n2nnc(-c3nc(-c4ccc(Cl)cc4)no3)c2N)c1` [Compound 55], the AC50 came out at 1.85 µM.

As to `COC(=O)/C(=C/c1cccc([N+](=O)[O-])c1)NC(=O)c1ccc(OC)cc1` [Compound 89], the AC50 turned out to be 5.21 µM.

The test is the same for the next values; noted with them: Homo sapiens, HeLa, 48 h, HeLa Luc-miR-21 reporter, 48-hour incubation; read-out: AC50.
As to `COc1cccc(OC)c1-c1nn2c(-c3ccco3)nnc2s1` [Compound 57], the AC50 came out at 11.7 µM.

In the case of `CC1=NN(C(=O)c2ccoc2C)C(O)(C(F)(F)F)C1` (stereo not drawn) [Compound 217], the AC50 was found to be 10.4 µM.

Turning to `O=C(COc1ccccc1[N+](=O)[O-])N/N=C/c1cccc(OC(=O)c2ccc3c(c2)OCO3)c1` [Compound 173], the AC50 is 18.5 µM.

Regarding `NC(=O)COC(=O)c1ccc2noc(-c3ccccc3)c2c1` [Compound 182], the AC50 amounted to 6.56 µM.

As to `Cc1cc(C)n2nc(SCCOc3ccccc3)nc2n1` [Compound 45], the AC50 came to 7.36 µM.

With `CCOc1ccccc1-n1nnc(-c2nc(-c3ccccc3)no2)c1N` [Compound 23], the AC50 was determined as 3.69 µM.

On to `CSc1nsc(SCC(=O)N2CCCCC2)n1` [Compound 150], for which the AC50 turned out to be 13.1 µM.

`Cc1ccc(-c2nsc(SCC(=O)Nc3ccc4c(c3)OCO4)n2)cc1` [Compound 161]: the AC50 stood at 16.5 µM.

Take `CSc1nsc(SCC(=O)Nc2ccccc2F)n1` [Compound 158]: the AC50 stood at 14.7 µM.

Consider `Cc1ccc(-c2csc(NC(=O)CSc3nc4ccccc4o3)n2)cc1` [Compound 147], for which the AC50 was determined as 11.7 µM.

Regarding `Cc1cc(C)cc(NC(=O)CSc2nnc(-c3ccccc3C)o2)c1` [Compound 157], the AC50 came to 14.7 µM.

As to `Cc1ccc(-n2nnc(-c3nc(-c4cccs4)no3)c2N)cc1C` [Compound 14], the AC50 is 1.65 µM.

Regarding `CCC(=O)Nc1ccc(NC(=O)C23CC4CC(CC(C4)C2)C3)cn1` [Compound 98], the AC50 came to 16.5 µM.

Take `COc1ccc(CNc2nc(-c3ccco3)nn2C(=O)CC(C)C)cc1` [Compound 32]: the AC50 is 5.85 µM.

In the case of `C/C(=N\NC(=O)c1ccco1)c1ccc(C(=O)O)s1` [Compound 196], the AC50 stood at 4.65 µM.

In the case of `COc1ccc(NC(=O)C/C(C)=N/NC(=O)c2ccccn2)c(OC)c1` [Compound 187], the AC50 was 1.85 µM.

Take `CCc1nonc1NC(=O)c1oc2ccccc2c1C` [Compound 79]: the AC50 turned out to be 14.7 µM.

With `O=C(CCc1ccccc1)n1nc(-c2ccco2)nc1SCc1ccccc1` [Compound 53], the AC50 was determined as 18.5 µM.

`Cc1cc(Cl)c2oc(C(=O)N(CCO)Cc3ccccc3)c(C)c2c1` [Compound 78]: the concentration at half-maximal activity (AC50) was determined as 14.7 µM.

With `COc1ccc(CNc2nc(-c3ccccc3)nn2C(=O)c2ccc([N+](=O)[O-])cc2)cc1` [Compound 38], the AC50 was found to be 14.7 µM.

Take `Nc1c(-c2nc(-c3cccs3)no2)nnn1-c1cccc(F)c1` [Compound 10]: the AC50 worked out at 0.21 µM.

For `CCCNc1nc(C)nc2c1cnn2CCc1ccccc1` [Compound 248], the AC50 amounted to 14.7 µM.

Take `CC(C)c1ccc(CNc2nc(-c3ccco3)nn2C(=O)c2ccc([N+](=O)[O-])cc2)cc1` [Compound 31]: the AC50 amounted to 2.07 µM.

Consider `CCC(=O)Oc1ccc(NC(=O)CSCc2ccccc2)cc1` [Compound 146], for which the AC50 was found to be 11.7 µM.

For the compound `Fc1ccccc1CSc1nnc(-c2cnccn2)n1Cc1ccco1` [Compound 54], the AC50 was 20.8 µM.

In the case of `COCc1cc(C)nc2sc(C(=O)Nc3ccccc3O)c(N)c12` [Compound 86], the AC50 came out at 13.1 µM.

Regarding `CN1CCN(NC(=O)Nc2ccc(Br)cc2Cl)CC1` [Compound 116], the AC50 came to 13.1 µM.

With `CCn1c2ccccc2c2cc(NC(=O)COC(=O)Cc3cn4ccsc4n3)ccc21` [Compound 171], the concentration at half-maximal activity (AC50) is 16.5 µM.

Take `Nc1cc(N)nc(SCC(=O)Nc2ccc(Br)cc2Cl)n1` [Compound 113]: the AC50 was 11.7 µM.

Take `Cc1c(C(=O)N(C)C(C)c2ccccn2)oc2c(F)cccc12` (stereo not drawn) [Compound 75]: the AC50 was 13.1 µM.

Turning to `O=C(N/N=C1\CC2C=CCC12)c1ccco1` (stereo not drawn) [Compound 199], the AC50 was 5.21 µM.

For the compound `CC(C)(C)C1CCc2nc(NC(=O)Cc3cn4ccsc4n3)sc2C1` (stereo not drawn) [Compound 95], the AC50 was found to be 8.26 µM.

For the compound `O=C(NN=C1CCCC1)c1cccs1` [Compound 186], the AC50 came out at 1.65 µM.

For the compound `Cc1cc(C)c2c(N)c(C(=O)Nc3ccccc3C(F)(F)F)sc2n1` [Compound 83], the AC50 was determined as 8.26 µM.

For `Cc1ccccc1Nc1nc(N)nc(CCC(=O)c2ccc(O)cc2)n1` [Compound 69], the AC50 was 18.5 µM.

On to `Cc1cc(C)n2c(SCc3ccccc3Cl)nnc2n1` [Compound 52], for which the AC50 amounted to 16.5 µM.

Take `Cc1cc(Cl)c2oc(C(=O)N[C@H]3CC[C@H](O)CC3)c(C)c2c1` [Compound 80]: the half-maximal activity concentration (AC50) came out at 16.5 µM.

On to `COc1cc(-c2nc3cnccn3c2Nc2ccc(C(C)C)cc2)ccc1O` [Compound 241], for which the AC50 came to 3.29 µM.

In the case of `Cc1nnc(SCc2nc(N)nc(Nc3ccccc3)n2)s1` [Compound 60], the AC50 came out at 11.7 µM.

For `Cc1ccc(-c2nc(NCc3ccco3)n(S(C)(=O)=O)n2)cc1` [Compound 37], the AC50 is 14.7 µM.

Consider `c1ccc(CSc2nnc3ccc(-c4cccs4)nn23)nc1` [Compound 44], for which the AC50 was 7.36 µM.

Turning to `C/C(CC(=O)NCc1ccccc1Cl)=N\NC(=O)c1ccccn1` [Compound 213], the AC50 is 8.26 µM.

In the case of `Cc1ccc(-c2noc(-c3nnn(CC(=O)Nc4cccc(C(F)(F)F)c4)c3N)n2)cc1` [Compound 27], the AC50 was 0.74 µM.

With `CN(C(=O)CSc1nnc(-c2ccccc2F)o1)C1CCCCC1` [Compound 143], the AC50 amounted to 9.27 µM.

`COc1nc(NCCO)nc(Nc2ccccc2F)n1` [Compound 59]: the AC50 was determined as 4.65 µM.

With `C=CCNC(=S)NNC(=O)COc1ccc2cc(Br)ccc2c1` [Compound 181], the AC50 came to 7.36 µM.

For the compound `COc1ccc(-c2nnc(SCC(=O)Nc3cccc(C)c3)s2)cc1` [Compound 151], the AC50 is 13.1 µM.

In the case of `O=C(N/N=C/c1ccc(OC(=O)c2cccs2)cc1)c1cccc(F)c1` [Compound 235], the AC50 was 18.5 µM.

Take `N#CC1=C(SCC(=O)Nc2ccccc2)NC(=O)CC1c1ccc(O)cc1` (stereo not drawn) [Compound 136]: the AC50 was determined as 6.56 µM.

On to `Cc1ccccc1OCCn1cnc2c(N)ncnc21` [Compound 239], for which the AC50 is 9.27 µM.

Take `CCS(=O)(=O)n1nc(-c2ccccc2)nc1NCc1ccco1` [Compound 41]: the AC50 came out at 18.5 µM.

Turning to `O=C(c1ccc(Cl)cc1)n1nc(-c2ccccc2)nc1NCc1ccco1` [Compound 36], the AC50 came to 14.7 µM.

On to `O=C(Cc1cccs1)N/N=C/C(Cl)=C/c1ccccc1` [Compound 193], for which the AC50 is 2.93 µM.

Consider `C/C(=N\NC(=O)c1ccco1)c1ccc(NC(=O)C(F)(F)F)cc1` [Compound 229], for which the AC50 turned out to be 16.5 µM.

For the compound `COc1ccccc1NC(=O)C/C(C)=N/NC(=O)c1ccccn1` [Compound 188], the AC50 came to 1.85 µM.

For `Nc1c(-c2nc(-c3ccccc3Cl)no2)nnn1-c1ccccc1F` [Compound 12], the half-maximal activity concentration (AC50) was determined as 0.83 µM.

For `C/C(CCc1ccccc1)=N\NC(=O)c1ccccc1` [Compound 222], the AC50 came out at 13.1 µM.

Staying with this test, now noted: Homo sapiens, Table 12 singletons; read-out: AC50.
Consider `Cc1ccc(-c2nc3ccccc3o2)cc1NC(=S)NC(=O)c1cc2ccccc2o1` [Compound 258], for which the AC50 was found to be 2.93 µM.

In the case of `Cc1ccc2oc(=O)c(/C=C(\O)c3cccs3)nc2c1` [Compound 346], the AC50 is 14.7 µM.

As to `CCOC(=O)c1s/c(=N/C(=O)c2c(F)cccc2F)n(C)c1C` [Compound 293], the AC50 came to 13.1 µM.

In the case of `Cc1nc2ccc(/N=C(\S)N3CCC(C)CC3)cc2nc1C` [Compound 296], the AC50 was found to be 13.1 µM.

With `COC(=O)C1C(=O)C=C(Nc2ccc(F)cc2F)CC1c1ccccc1` (stereo not drawn) [Compound 340], the AC50 is 18.5 µM.

Take `CCN(CC)C(=O)CS/C(=N/C#N)Nc1ccccc1F` [Compound 306]: the AC50 turned out to be 14.7 µM.

As to `CCn1c(=O)c(C(=O)Nc2ccccc2S(N)(=O)=O)c(O)c2ccccc21` [Compound 309], the AC50 came out at 14.7 µM.

For the compound `c1csc(-c2nn3c(C4COc5ccccc5O4)nnc3s2)c1` (stereo not drawn) [Compound 314], the AC50 was determined as 16.5 µM.

For `CCc1cccc(CC)c1N(COC)C(=O)Cn1c(CC)nc2ccccc21` [Compound 307], the half-maximal activity concentration (AC50) turned out to be 14.7 µM.

For the compound `c1ccc(-c2nnc(CN3CCCCC3)o2)cc1` [Compound 327], the AC50 turned out to be 16.5 µM.

With `Cc1c(-c2nc(-c3ccc(C(F)(F)F)cc3)no2)n(C)oc1=O` [Compound 250], the concentration at half-maximal activity (AC50) is 0.29 µM.

Consider `CCC(=O)Oc1ccc(NC(=O)CSCc2ccccc2)cc1` [Compound 288], for which the AC50 worked out at 11.7 µM.

Take `CC(=O)O[C@H]1C[C@@]2(C)[C@@H](C[C@@H](O)[C@H]3[C@@]4(C)CC[C@@H](O)[C@@H](C)C4CC[C@@]32C)/C1=C(\CCC=C(C)C)C(=O)O` (stereo partly drawn) [Compound 312]: the concentration at half-maximal activity (AC50) was determined as 14.7 µM.

As to `CCc1ccc(NC(=O)NCCCN2CCCC2=O)cc1` [Compound 291], the AC50 stood at 11.7 µM.

For `C#CN/C(=N\CC=C)SCCc1ccccc1` [Compound 326], the AC50 came out at 16.5 µM.

Still in this test, the particulars now being: Table 12 singletons; read-out: AC50.
As to `COC(=O)C1C(=O)C=C(Nc2ccc(F)cc2F)CC1c1ccccc1` (stereo not drawn) [Compound 343], the AC50 was 18.5 µM.
